Data as given in US12366579B2, “Sulfur-heterocycle exchange chemistry and uses thereof” (University of Virginia Patent Foundation, priority 2019, dated 2025).

Tests used:
[1] = tested on: human cell proteomes (HEK293T, A549, DM93, H82, and Jurkat cells); assay: LC-MS chemical proteomics of probe-modified tyrosine sites across 5 cell proteomes; format: binding; details: HHS-465 and -475 together; 100 μM, 1 hr, 25° C.
Procedure: Proteomes were diluted to 2.3 mg/mL in PBS and sample aliquots (432 μL) were treated with sulfonyl-triazole or -fluoride probes at the indicated concentrations (5 μL, 100× stock in DMSO), mixed gently and incubated for 1 h at room temperature. Probe-modified proteomes were subjected to CuAAC conjugation to desthiobiotin-PEG3-azide (10 μL of 10 mM stock in DMSO; final concentration of 200 μM) using TCEP (10 μL of fresh 50 mM stock in water; 1 mM final concentration), TBTA ligand (33 μL of a 1.7 mM 4:1 t-butanol/DMSO stock, 100 μM final concentration), and CuSO4 (10 μL of 50 mM stock, 1 mM final concentration). Samples were mixed by vortexing and then incubated for 1 h at room temperature. Excess reagents were removed by chloroform-methanol extraction as previously described^51. Protein pellets were re-suspended in 500 μL of 6M urea/25 mM ammonium bicarbonate followed by DTT reduction and IAA alkylation as previously described^5. Excess reagents were removed by chloroform/methanol extraction as described above, and the protein pellet was re-suspended in 500 μL of 25 mM ammonium bicarbonate and then digested to peptides using trypsin/Lys-C (7.5 μg in 15 μL of ammonium bicarbonate, sequencing grade from Promega, Madison, Wisconsin, United States of America) was added to the mixture and incubated for 3 hrs at 37° C. […]

[2] = tested on: HEK293T soluble proteomes; assay: LC-MS chemical proteomics of probe-modified sites in cell proteomes; format: binding, human
Procedure: Proteomes were diluted to 2.3 mg/mL in PBS and sample aliquots (432 μL) were treated with sulfonyl-triazole or -fluoride probes at the indicated concentrations (5 μL, 100× stock in DMSO), mixed gently and incubated for 1 h at room temperature. Probe-modified proteomes were subjected to CuAAC conjugation to desthiobiotin-PEG3-azide (10 μL of 10 mM stock in DMSO; final concentration of 200 μM) using TCEP (10 μL of fresh 50 mM stock in water; 1 mM final concentration), TBTA ligand (33 μL of a 1.7 mM 4:1 t-butanol/DMSO stock, 100 μM final concentration), and CuSO4 (10 μL of 50 mM stock, 1 mM final concentration). Samples were mixed by vortexing and then incubated for 1 h at room temperature. Excess reagents were removed by chloroform-methanol extraction as previously described^51. Protein pellets were re-suspended in 500 μL of 6M urea/25 mM ammonium bicarbonate followed by DTT reduction and IAA alkylation as previously described^5. Excess reagents were removed by chloroform/methanol extraction as described above, and the protein pellet was re-suspended in 500 μL of 25 mM ammonium bicarbonate and then digested to peptides using trypsin/Lys-C (7.5 μg in 15 μL of ammonium bicarbonate, sequencing grade from Promega, Madison, Wisconsin, United States of America) was added to the mixture and incubated for 3 hrs at 37° C. Probe-modified peptides were enriched by avidin affinity chromatography, eluted, and prepared for LC-MS analysis as previously described^51.
A top 10 data-dependent acquisition MS method was used.
Sulfonyl-probe modifications of tyrosine, lysine, and other amino acids were included as a variable (common) modification of +635.27374 Da. […] A Byonic score of 300 was applied for a more inclusive initial evaluation of the search results and thereby consider more possible probe-modified sites. MS1 and MS2 spectra corresponding to the highest-scoring tyrosine- and lysine (internal or non-C terminal)-modified sequences (˜50-100 peptides) were manually verified. […] Distinct peptides containing probe-modified amino acid residues (termed sites) were determined by identifying all unique razor protein and site combinations across all of the proteomes tested.
To compare amino acid residues modified by sulfonyl probes, protein and peptide identifications were accomplished as described above with variable (common) modification of +635.27374 Da on the following amino acid residues: cysteine, aspartic acid, glutamic acid, histidine, lysine, methionine, asparagine, glutamine, arginine, serine, threonine, tryptophan, and tyrosine. For these amino acid comparisons, carbamidomethylation (+57.021464 Da) of cysteines was searched as a variable/common modification to allow for the potential of probe modification on cysteines. Comparisons of probe-modified sites across all probes and cell lines tested were performed using the R package ggplot2 (online at tidyverse.org). Venn diagrams for comparisons were generated using the VennDiagram R package^52.
Proteomes were digested with trypsin protease and desthiobiotin-modified peptides enriched by avidin affinity chromatography, released, and analyzed by high-resolution liquid chromatography-mass spectrometry (LC-MS). Probe-modified peptide-spectrum matches (PSMs) that met a quality control confidence criteria of ≥300 Byonic score^31 and ≤5 ppm mass accuracy were selected for further manual evaluation.

In the case of `C#CCNC(=O)c1ccc(S(=O)(=O)n2cncn2)cc1` [HHS-475, 4-((1H-1,2,4-Triazol-1-yl)sulfonyl)-N-(prop-2-yn-1-yl)benzamide], the “tyrosine sites identified in aggregate across 5 cell proteomes” value [1] was ~8,000 sites, the “unique-modified tyrosine sites among 1,2,4-SuTEx probes” value ([2]; FIG. 4D) was 391 sites and the “tyrosine specificity, Y/K ratio of modified sites” value ([2]; LC-MS chemical proteomics, FIG. 4A) was 2.8.
